Key:
[1] = tested on: colorectal cancer cells HCT116; assay: Proliferation inhibitory activity test against colorectal cancer cells HCT116 (CellTiter-3D-Glo); type: cell-based; conditions: Homo sapiens, HCT-116, low-adhesion 96-well U-bottom plate
Experimental: (§1) Cell proliferation activity was detected by a CellTiter-3D-Glo reagent method. A testing process was as follows: HCT116 cells in logarithmic growth period were digested, diluted to a suitable cell density with McCoy's 5A complete medium containing 10% FBS and 1% PS, inoculated into a low-adhesion 96-well U-bottom plate, and cultured in 5% CO2; and then a series of to-be-tested compounds with concentration gradient was added, and the system was incubated in a 5% CO2 incubator. After finishing the incubation, the cells were lysed and detected by using the CellTiter-3D-Glo reagent. Chemiluminescence values were measured by a microplate reader, and data were fitted by Graphpad Prism software, so as to calculate IC50 values of tested substances. Test results can be seen in the following table: wherein, "A" represents inhibitory activity IC50 < 20 nM, "B" represents inhibitory activity 20 nM ≤ IC50 < 50 nM, and "C" represents inhibitory activity IC50 ≥ 50 nM.

[2] = tested on: colorectal cancer cells SW480; assay: 3D model proliferation inhibitory activity test against colorectal cancer cells SW480 (CellTiter-3D-Glo); type: cell-based; conditions: Homo sapiens, low-adhesion 96-well U-bottom plate
Experimental: as §1, with “specific method” for “testing process”, “SW480” for “HCT116”, “DMEM” for “McCoy's 5A”, “and” for “and the system was”, “substances.” for “substances. Test results can be seen in the following table: wherein, "A" represents inhibitory activity IC50 < 20 nM, "B" represents inhibitory activity 20 nM ≤ IC50 < 50 nM, and "C" represents inhibitory activity IC50 ≥ 50 nM.”

lung cancer cells A427 = assay: 3D model proliferation inhibitory activity test against lung cancer cells A427 (CellTiter-3D-Glo); type: cell-based; conditions: Homo sapiens, A-427, low-adhesion 96-well U-bottom plate
Experimental: as §1, with “specific method” for “testing process”, “A427” for “HCT116”, “MEM” for “McCoy's 5A”, “and” for “and the system was”, “substances.” for “substances. Test results can be seen in the following table: wherein, "A" represents inhibitory activity IC50 < 20 nM, "B" represents inhibitory activity 20 nM ≤ IC50 < 50 nM, and "C" represents inhibitory activity IC50 ≥ 50 nM.”

[3] = tested on: pancreatic cancer cells MIA PaCa-2; assay: Pharmacodynamic experiment of subcutaneous xenograft tumor model of pancreatic cancer cells MIA PaCa-2; type: in vivo, BALB/c nude mice; conditions: 0.2 mg/kg, QD × 15 days, oral gavage; for diets, weights and activities of the animals during the drug administration / Tumor inhibition rate: BALB/c nude mice; for Tumor inhibition rate: MIA PaCa-2 subcutaneous xenograft; for inhibitory effects on the growth of subcutaneously transplanted tumors of pancreatic cancer MIA PaCa-2 cells in the nude mice: result in words
[4] = tested on: colorectal cancer cells SW480; assay: Pharmacodynamic experiment of subcutaneous xenograft tumor model of colorectal cancer cells SW480; type: in vivo, BALB/c nude mice; conditions: 0.2 mg/kg, QD × 18 days, oral gavage
Experimental: Animal species and number: BALB/c nude mice, 6 mice in each group.
Experimental samples: compound 4-1 and compound Ref A-1.
Experimental groups: blank solvent control group, compound 4-1 (0.2 mg/kg, QD × 18 days) and compound Ref A-1 (0.2 mg/kg, QD × 18 days).
Establishment of animal model: SW480 tumor cells in logarithmic growth period were cultured and collected in vitro, and inoculated subcutaneously in right backs of the Balb/c Nude mice, and when tumors grew to about 180-250 mm^3, the tumor-bearing mice were randomly divided into groups. Subsequently, each group of animals were administered with drugs, and the first day of drug administration was defined as the 1st day of the experiment.
Drug administration route and frequency: oral gavage, once per day, for 18 consecutive days.
General state observation: the mice were observed once per day, and observation contents included, but were not limited to, locally administered parts, physical signs, general behaviors, mental states, death and other situations, and other abnormal manifestations of the animals.
Tumor volume calculation: V = 0.5 a × b^2, wherein a was a long diameter of tumor and b was a short diameter of tumor. Tumor growth inhibition rates TGI (%) were used to evaluate anti-tumor effects of the compounds. […]

[5] = In-vivo pharmacokinetic study in SD rats; conditions: 0.2 mg/kg
Experimental: Pharmacokinetic study on compound 4-1 in SD rats was conducted. 12 SD rats (half male and half female) were selected and randomly divided into 2 groups (3 rats/sex/group) according to their body weights, and the groups were recorded as a group 1 and a group 2, which were administered with 0.2 mg/kg compound 4-1 by intravenous and oral gavage route respectively. All the experimental animals were administered with a single dose on Day 0, and a drug administration moment was recorded as 0 hour. About 0.25 mL of whole blood (EDTA-K2) was respectively collected from all the experimental animals in group 1 before the drug administration, at 5 minutes, 15 minutes, 30 minutes, 1 hour, 2 hours, 4 hours, 6 hours, 8 hours and 24 hours after finishing the drug administration to prepare plasma; and about 0.25 mL of whole blood (EDTA-K2) was respectively collected from all the experimental animals in group 2 before the drug administration, at 15 minutes, 30 minutes, 1 hour, 2 hours, 4 hours, 6 hours, 8 hours and 24 hours after finishing the drug administration to prepare plasma. The compounds in the plasma samples were quantitatively determined by a LC-MS/MS method, and pharmacokinetic parameters were analyzed and calculated by non-compartmental analysis.

Row | Compound | IC50 [1] [nM] | IC50 [2] [nM] | IC50 (lung cancer cells A427) [nM] | also measured
1 | C=CCNC(=O)c1cc(Cc2ccnc(NS(=O)(=O)NC)c2F)c(F)c(F)c1Nc1ccc(C=C)cc1F [Compound 4-14, N-allyl-3,4-difluoro-5-((3-fluoro-2-((N-methylaminosulfonyl)amino)pyridin-4-yl)methyl)-2-((2-fluoro-4-vinylphenyl)amino)benzamide] | < 20 | 2.67 |  | 
2 | [2H]C([2H])([2H])NS(=O)(=O)Nc1nccc(Cc2cc(C(=O)NCC=C)c(Nc3ccc(I)cc3F)c(F)c2F)c1F [Compound 4-10, N-allyl-3,4-difluoro-5-((3-fluoro-2-((N-methyl-d3-aminosulfonyl)amino)pyridin-4-yl)methyl)-2-((2-fluoro-4-iodophenyl)amino)benzamide] | < 20 | 1.05 | 0.89 | 
3 | [2H]C([2H])(C=C)NC(=O)c1cc(Cc2ccnc(NS(=O)(=O)NC)c2F)c(F)c(F)c1Nc1ccc(I)cc1F [Compound 4-7, N-(allyl-1,1-d2) -3,4-difluoro-5-((3-fluoro-2-((N-methylaminosulfonyl)amino)pyridin-4-yl)methyl)-2-((2-fluoro-4-iodophenyl)amino)benzamide] |  |  | 1.09 | 
4 | C=CCNC(=O)c1cc(Cc2ccnc(NS(=O)(=O)NCC)c2F)c(F)c(F)c1Nc1ccc(I)cc1F [Compound 4-8, N-allyl-5-((2-((N-ethylaminosulfonyl)amino)-3-fluoropyridin-4-yl)methyl)-3,4-difluoro-2-((2-fluor o-4-iodophenyl)amino)benzamide] | < 20 |  | 2.88 | 
5 | C=CCNC(=O)c1cc(Cc2ccnc(NS(=O)(=O)NC)c2F)c(F)c(F)c1Nc1ccc(I)cc1F [Compound 4-1, N-allyl-3,4-difluoro-5-((3-fluoro-2-((N-methylaminosulfonyl)amino)pyridin-4-yl)methyl)-2-((2-fluoro-4-iodophenyl)amino)benzamide] | < 20 | 0.89 | 1.16 | diets, weights and activities of the animals during the drug administration [3]: normal; Tumor inhibition rate [3]: +++ (tumor inhibition rate > 90%); inhibitory effects on the growth of subcutaneously transplanted tumors of pancreatic cancer MIA PaCa-2 cells in the nude mice [3]: significant inhibitory effects; Tumor inhibition rate ([4]; SW480 subcutaneous xenograft, BALB/c nude mice): ++++ (tumor inhibition rate > 100%); inhibitory effect on the growth of subcutaneously transplanted tumors of colorectal cancer SW480 cells in the nude mice ([4]; result in words): significant inhibitory effect; bioavailability ([5]; both sexes, rat, plasma, single dose, intravenous and oral gavage, read-out: absolute bioavailability (F%)): > 65%; absorption and clearance rates ([5]; result in words): greater
6 | C=C[C@@H](C)NC(=O)c1cc(Cc2ccnc(NS(=O)(=O)NC)c2F)c(F)c(F)c1Nc1ccc(I)cc1F [Compound 4-5, (R)-N-(but-3-en-2-yl)-3,4-difluoro-5-((3-fluoro-2-((N-methylaminosulfonyl)amino)pyridin-4-yl)methyl)-2-((2-fluoro-4-iodophenyl)amino)benzamide] | < 20 |  | 2.13 | 
7 | C=CCONC(=O)c1cc(Cc2ccnc(NS(=O)(=O)NC)c2F)c(F)c(F)c1Nc1ccc(I)cc1F [Compound 5-1, N-(allyloxy)-3,4-difluoro-5-((3-fluoro-2-((N-methylaminosulfonyl)amino)pyridin-4-yl)methyl)-2-((2-fluoro-4-iodophenyl)amino)benzamide] |  | 0.17 | 0.53 | diets, weights and activities of the animals during the drug administration [3]: normal; Tumor inhibition rate [3]: +++ (tumor inhibition rate > 90%); inhibitory effects on the growth of subcutaneously transplanted tumors of pancreatic cancer MIA PaCa-2 cells in the nude mice [3]: significant inhibitory effects
8 | C=CCCONC(=O)c1cc(Cc2ccnc(NS(=O)(=O)NC)c2F)c(F)c(F)c1Nc1ccc(I)cc1F [Compound 5-2, N-(but-3-en-1-yloxy)-3,4-difluoro-5-((3-fluoro-2-((N-methylaminosulfonyl)amino)pyridin-4-yl)methyl)-2-((2-fluoro-4-iodophenyl)amino)benzamide] |  | 0.63 |  | 
